Source: patent US20090143440A1, “Pyrazoles Useful in the Treatment of Inflammation” (BIOLIPOX AB, priority 2005, published 2009)

Biological target: T1, purified human 15-lipoxygenase (Homo sapiens, UniProt P16050)
T1 sequence (P16050 1-662): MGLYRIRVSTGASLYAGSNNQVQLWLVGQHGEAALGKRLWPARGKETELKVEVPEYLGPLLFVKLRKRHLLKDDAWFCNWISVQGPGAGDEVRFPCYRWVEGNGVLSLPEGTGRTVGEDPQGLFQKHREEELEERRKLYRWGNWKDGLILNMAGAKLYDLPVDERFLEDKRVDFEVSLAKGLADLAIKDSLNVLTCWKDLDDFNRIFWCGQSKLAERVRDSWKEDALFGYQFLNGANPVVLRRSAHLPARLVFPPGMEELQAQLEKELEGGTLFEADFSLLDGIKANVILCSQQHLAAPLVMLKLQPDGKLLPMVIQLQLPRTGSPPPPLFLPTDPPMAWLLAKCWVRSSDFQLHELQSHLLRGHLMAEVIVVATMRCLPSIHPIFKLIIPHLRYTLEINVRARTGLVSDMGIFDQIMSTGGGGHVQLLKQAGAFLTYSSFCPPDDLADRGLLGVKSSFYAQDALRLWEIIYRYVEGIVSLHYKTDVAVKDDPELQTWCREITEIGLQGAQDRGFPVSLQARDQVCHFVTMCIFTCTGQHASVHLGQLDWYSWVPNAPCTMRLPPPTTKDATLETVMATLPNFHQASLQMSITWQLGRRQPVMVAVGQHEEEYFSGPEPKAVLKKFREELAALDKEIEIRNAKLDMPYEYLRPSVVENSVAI
Assay: 15-lipoxygenase inhibition assay (arachidonic acid oxidation, HPLC readout)
Format: biochemical
Settings: arachidonic acid substrate, room temperature, PBS pH 7.4
Description: The assay employed takes advantage of the ability of lipoxygenases to oxidize polyunsaturated fatty acids, containing a 1,4-cis-pentadiene configuration, to their corresponding hydroperoxy or hydroxyl derivatives. In this particular assay, the lipoxygenase was a purified human 15-lipoxygenase and the fatty acid was arachidonic acid. The assay is performed at room temperature (20-22° C.) and the following are added to each well in a 96-well microtiter plate:
a) 35 μL phosphate buffered saline (PBS) (pH 7.4); b) inhibitor (i.e. compound) or vehicle (0.5 μl DMSO); c) 10 μL of a 10× concentrated solution of 15-lipoxygenase in PBS. […] The plate is then incubated for 10 minutes at room temperature; e) the enzymatic reaction is terminated by the addition of 100 μl methanol; and f) the amount of 15-hydroperoxy-eicosatetraenoic acid or 15-hydroxy-eicosatetraenoic acid is measured by reverse phase HPLC.

Row | SMILES | IC50
1 | O=C(Nc1ccc(C(F)(F)F)cn1)c1cc(Cl)[nH]n1 [Example 5, 5-Chloro-N-(5-(trifluoromethyl)pyridin-2-yl)pyrazole-3-carboxamide] | 300 nM
2 | O=C(Nc1ccc(F)cn1)c1cc(C(F)F)[nH]n1 [Example 13, 5-(Difluoromethyl)-N-(5-fluoropyridin-2-yl)pyrazole-3-carboxamide] | 393 nM
3 | O=C(Nc1ccc(F)cn1)c1n[nH]c(C(F)(F)F)c1Cl [Example 11, 4-Chloro-N-(5-fluoropyridin-2-yl)-5-(trifluoromethyl)pyrazole-3-carboxamide] | 310 nM
4 | Cc1nc(NC(=O)c2cc(Cl)[nH]n2)ccc1Br [Example 6, N-(5-bromo-6-methylpyridin-2-yl)-5-chloropyrazole-3-carboxamide] | 320 nM

Second part, the molecule after the results:

Row | IC50 | SMILES
5 | 346 nM | Cc1ccnc(NC(=O)c2cc[nH]n2)c1 [Example 44]
6 | 248 nM | O=C(Nc1ccc([N+](=O)[O-])cn1)c1cc(Cl)[nH]n1 [Example 14, 5-Chloro-N-(5-nitropyridin-2-yl)pyrazole-3-carboxamide]
7 | 122 nM | COc1ccc(NC(=O)c2cc(Cl)[nH]n2)nc1 [Example 29, 5-Chloro-N-(5-methoxypyridin-2-yl)pyrazole-3-carboxamide]
